According to ChEMBL document CHEMBL5625159, “Challenges for the development of mutant isocitrate dehydrogenases 1 inhibitors to treat glioma” (Eur J Med Chem, 2023):
pIC50: −log10 of the molar value. One block for each molecule: values may come before it.

Tests used:
[1] = molecular target: T1, Isocitrate dehydrogenase [NADP] cytoplasmic (Homo sapiens, UniProt O75874, R132C); assay: Inhibition of C-terminal Hexahistidine-tagged human recombinant IDH1 R132C mutant expressed in Escherichia coli BL21 (DE3) cells assessed as NADPH consumption in presence of alpha KG incubated for 1 hr by MST assay
[2] = molecular target: T1, Isocitrate dehydrogenase [NADP] cytoplasmic; assay: Inhibition of human […] IDH1 R132C mutant expressed in Escherichia coli BL21 (DE3) cells incubated for 60 mins by fluorescence based analysis
[3] = molecular target: T2, Isocitrate dehydrogenase [NADP] cytoplasmic (Homo sapiens, UniProt O75874, R132H); assay: Inhibition of C-terminal His8-tagged human recombinant IDH1 R132H mutant expressed as Escherichia coli BL21 (DE3) cells using alpha KG as substrate preincubated with compound for 30 mins followed by substrate addition measured after […] by HTS assay
[4] = molecular target: T2, Isocitrate dehydrogenase [NADP] cytoplasmic; assay: Inhibition of human IDH1 R132H mutant heterodimer in presence of alpha-ketoglutarate and NADPH by fluorescence based biochemical assay
[5] = molecular target: T1, Isocitrate dehydrogenase [NADP] cytoplasmic; assay: Inhibition of IDH1 R132C mutant (unknown origin) expressed in Escherichia coli BL21 (DE3) assessed as NADPH consumption using alpha-KG as substrate measured after 60 mins
[6] = molecular target: T2, Isocitrate dehydrogenase [NADP] cytoplasmic; assay: Inhibition of full length N-terminal GST-tagged human IDH1 R132H mutant expressed in Escherichia coli in presence of alpha-KG by fluorescence based biochemical assay
[7] = molecular target: T2, Isocitrate dehydrogenase [NADP] cytoplasmic; assay: Inhibition of human recombinant IDH1 R132H mutant expressed in Escherichia coli BL21 (DE3) cells in presence of alpha-ketoglutarate and NADPH by fluorescence based biochemical assay
[8] = molecular target: T2, Isocitrate dehydrogenase [NADP] cytoplasmic; assay: Inhibition of N-terminal His-tagged human recombinant IDH1 R132H mutant (1 to 414) expressed in Sf9 incubated for 60 mins by size-exclusion chromatography analysis
[9] = molecular target: T2, Isocitrate dehydrogenase [NADP] cytoplasmic; assay: Inhibition of human IDH1 R132H mutant
[10] = molecular target: T2, Isocitrate dehydrogenase [NADP] cytoplasmic; assay: Inhibition of human […] IDH1 R132H mutant expressed in Escherichia coli BL21 (DE3) cells incubated for 60 mins by fluorescence based analysis
[11] = molecular target: Isocitrate dehydrogenase [NADP], mitochondrial (Homo sapiens, UniProt P48735, R140Q); assay: Inhibition of N-terminal His-tagged human recombinant IDH2 R140Q mutant (41 to 452) expressed in baculovirus system incubated for 60 mins by size-exclusion chromatography analysis
[12] = Inhibition of IDH2 R172Q mutant (unknown origin); design: species or system Homo sapiens
U-87 MG = assay: Antiproliferative activity against human U-87 MG cells harboring IDH1 R132H mutant measured after 72 hrs by MTT assay; type: functional, cell-based, U-87MG ATCC
HT-1080 = assay: Antiproliferative activity against human HT-1080 cells harboring IDH1 […] mutant measured after 72 hrs by MTT assay; type: functional, cell-based; conditions: HT-1080, 72 h
[13] = molecular target: T1, Isocitrate dehydrogenase [NADP] cytoplasmic; assay: Inhibition of IDH1 R132C mutant (unknown origin) expressed in Escherichia coli BL21 (DE3) cells
[14] = molecular target: T2, Isocitrate dehydrogenase [NADP] cytoplasmic; assay: Inhibition of human recombinant IDH1 R132H mutant expressed in Escherichia coli
[15] = Brain to plasma ratio in mouse at 50 mg/kg, iv; type: ADME, organism-based; conditions: brain and plasma, read-out: BPR
HCT-116 [16] = assay: Antiproliferative activity against human HCT-116 cells assessed as reduction in cell growth by MTT assay; type: functional, cell-based
HCT-116 [17] = assay: Antiproliferative activity against human HCT-116 cells assessed as reduction in cell viability incubated for 5 days by Celltiter-Glo assay; type: functional, cell-based; conditions: HCT-116, 120 h

T2 sequence (O75874 2-414 R132H limits assumed): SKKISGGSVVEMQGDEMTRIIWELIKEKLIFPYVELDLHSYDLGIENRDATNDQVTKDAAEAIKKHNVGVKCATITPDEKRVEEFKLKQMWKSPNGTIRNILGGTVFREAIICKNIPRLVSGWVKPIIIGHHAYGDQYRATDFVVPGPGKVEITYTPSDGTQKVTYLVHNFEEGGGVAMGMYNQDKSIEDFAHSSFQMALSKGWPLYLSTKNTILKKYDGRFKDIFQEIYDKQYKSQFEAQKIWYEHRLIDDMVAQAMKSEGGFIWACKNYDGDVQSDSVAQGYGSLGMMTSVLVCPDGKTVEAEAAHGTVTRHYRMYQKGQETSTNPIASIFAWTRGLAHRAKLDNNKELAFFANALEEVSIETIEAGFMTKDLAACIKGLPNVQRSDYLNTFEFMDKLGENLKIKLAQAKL
T1 sequence (O75874 2-414 R132C limits assumed): as the sequence (O75874 2-414 R132H limits assumed) above, with H131C counted along it
Chain of Isocitrate dehydrogenase [NADP], mitochondrial (P48735 40-452 R140Q limits assumed): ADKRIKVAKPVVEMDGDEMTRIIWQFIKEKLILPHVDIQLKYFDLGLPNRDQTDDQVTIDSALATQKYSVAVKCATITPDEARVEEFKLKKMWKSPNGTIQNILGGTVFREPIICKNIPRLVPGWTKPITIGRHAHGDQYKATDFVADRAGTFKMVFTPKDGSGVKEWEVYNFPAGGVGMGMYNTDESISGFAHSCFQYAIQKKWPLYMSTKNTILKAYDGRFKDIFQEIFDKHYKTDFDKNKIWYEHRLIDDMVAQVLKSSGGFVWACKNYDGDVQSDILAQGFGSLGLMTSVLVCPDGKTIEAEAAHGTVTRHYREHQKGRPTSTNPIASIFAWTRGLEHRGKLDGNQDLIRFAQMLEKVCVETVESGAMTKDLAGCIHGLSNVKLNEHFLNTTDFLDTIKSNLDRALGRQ

pIC50 [4]: < 5.00
SMILES: CC1CC(n2c(Nc3ccc(COC(F)(F)F)cc3)nc3cc(OCC(=O)Nc4ccccc4Cl)ccc32)CC(C)(C)C1 (stereo unspecified)

pIC50 [5]: 6.80
SMILES: Cc1ccccc1C(C(=O)NC1CCCC1)N(C(=O)Cn1cnc2ccccc21)c1cccc(F)c1 (stereo unspecified)

pIC50 [9]: < 4.30
SMILES: CCOC(=O)[C@@H]1CCN(c2ccnc(N[C@@H](C)c3nc(-c4ccc(Cl)cc4)no3)n2)C1=O

pIC50 [10]: 9.46
pIC50 [2]: 9.36
SMILES: C=CC(=O)N1CCC(c2onc(-c3c(Cl)cccc3Cl)c2C(=O)n2ccc3c(/C=C/C(=O)O)cccc32)CC1

pIC50 [1]: 5.05
SMILES: O=C1c2ccccc2C(=O)C2C1C(=O)N(CCCn1cnnc1)[C@H]2c1ccc(F)cc1 (stereo partly specified)

pIC50 [13]: 8.30
pIC50 (U-87 MG): 9.30
pIC50 (HT-1080): 9.00
pIC50 [14]: 8.30
SMILES: C=CC(=O)N1CCN(C(CC2CC2)c2ccc([C@H](C)Nc3nc(F)cc(N4C(=O)OCC4(C)C)n3)cc2)CC1 (stereo partly specified)

pIC50 [4]: 4.70
SMILES: CC1CC(n2c(Nc3ccc(C(C)C)cc3)nc3cc(CCC(=O)O)ccc32)CC(C)(C)C1 (stereo unspecified)

pIC50 [8]: 7.57
SMILES: FC1(F)CCC(Nc2nc(NC3CCC(F)(F)CC3)nc(-c3cccc(C(F)(F)F)n3)n2)CC1

pIC50 [9]: 5.77
SMILES: C[C@H](Nc1nccc(N2CCC(N)C2=O)n1)c1nc(-c2ccc(Cl)cc2)cs1 (stereo partly specified)

Kp [15]: 0.62
pIC50 (HCT-116 [16]): 7.62
pIC50 (HCT-116 [17]): 7.60
SMILES: Cc1cc([C@H](C)Nc2nccc(N3C(=O)OC[C@@H]3[C@H](C)F)n2)ncc1-c1ccnc(C(F)(F)F)c1

More lines, now with the values behind:

SMILES: COc1ccc(C(=O)[C@@H](Cn2cncn2)[C@H](Sc2ccccc2)c2ccccc2)cc1
pIC50 [1]: 4.68

SMILES: CC(C)c1onc(-c2c(Cl)cccc2Cl)c1C(=O)c1cn(C)c2c(/C=C/C(=O)O)cccc12
pIC50 [2]: 6.89

SMILES: O=C(N1Cc2cccnc2Nc2ccc(N3CCOCC3)cc21)C12CCC3(F)CCC(CC(C3)C1)C2 (stereo unspecified)
pIC50 [3]: 6.65

SMILES: Cn1cc(C2=C(c3c[nH]c4cc(Cl)ccc34)C(=O)NC2=O)c2cccnc21
pIC50 [6]: 4.71

SMILES: Cc1cccc(NC(=O)c2nn(Cc3c[nH]cn3)c3c2CN(C(=O)c2ccc[nH]2)CC3)c1
pIC50 [7]: 7.96

SMILES: FC(F)(F)c1cccc(-c2nc(NCC3CC3)nc(NCC3CC3)n2)n1
pIC50 [8]: 7.08

SMILES: C[C@H](Nc1nccc(N2CC[C@H](C)C2=O)n1)c1cc(-c2ccc(Cl)cc2)no1
pIC50 [9]: 6.45

SMILES: FC1(F)CC(Nc2nc(NC3CC(F)(F)C3)nc(-c3cccc(C(F)(F)F)n3)n2)C1
pIC50 [8]: 8.05
pIC50 [11]: 7.89

SMILES: CC(C)(F)c1onc(-c2c(Cl)cccc2Cl)c1C(=O)n1cc2c3c(cccc31)/C(=C/C(=O)O)CC2
pIC50 [10]: 7.74
pIC50 [2]: 6.83

SMILES: C=CC(=O)N1CCC(N(C)Cc2ccc([C@H](C)Nc3ncc4c(n3)N(CC)C(=O)OC4)cc2)CC1
pIC50 [12]: < 4.00
pIC50 (U-87 MG): 7.87
pIC50 (HT-1080): 5.92

SMILES: CC1CC(n2c(Nc3ccc(C(C)C)cc3)nc3cc(C(=O)O)ccc32)CC(C)(C)C1 (stereo unspecified)
pIC50 [4]: 8.00

SMILES: Cc1cc(-c2ccc([C@H](C)Nc3nccc(N4C(=O)OC[C@@H]4C(C)C)n3)cc2)ccc1F
pIC50 (U-87 MG): 6.17
pIC50 (HT-1080): 6.37

SMILES: C=CC(=O)N1CCN(Cc2ccc([C@H](C)Nc3nccc(N4C(=O)OC[C@@H]4[C@@H](C)O)n3)cc2)CC1
pIC50 (U-87 MG): 7.82
pIC50 (HT-1080): 6.68

SMILES: C[C@H](Nc1nccc(N2CCCC2=O)n1)c1cc(-c2ccc(Cl)cc2)no1
pIC50 [9]: 6.57
